In brackets after ≈: the same amount, converted by molar mass. Where two headings read alike, the source gives them in different places.
Columns and labels:
P. aeruginosa = assay: MIC determination (CLSI, Mueller Hinton broth), planktonic cultures; assay type: cell-based, Pseudomonas aeruginosa; conditions: for MIC: Pseudomonas aeruginosa
Protocol: (§1) A standard protocol for determining the MIC of a specific compound as outlined by the Clinical and Laboratory Standards Institute (CLSI) was used, based on growth of the selected bacteria in Mueller Hinton (MH) broth with subsequent 2-fold dilutions of compounds of interest. Following the CLSI protocols, the MIC of each broad spectrum “hit” compound was performed in all 3 bacterial species in both aerobic and anaerobic conditions. All bacteria were grown in MH broth for 18 hrs at 37° C. The cells were then diluted 100-fold into MH broth containing compounds at concentrations ranging from 0.40-50 μM in the presence of either KNO3 or glucose to allow bacterial growth under anaerobic condition. After 24 hrs of incubation, cell growth was measured at OD600 using a SpectraMax 190 Absorbance Microplate Reader.
(§2) The HTS and CLSM assays identified and confirmed compounds that can inhibit biofilms formation in aerobic growth conditions. However, P. aeruginosa and S. epidermidis are capable of growth under anaerobic as well as aerobic conditions. […] The Minimal Inhibitory Concentrations (MIC) of the four broad agent hit compounds under both aerobic and anaerobic conditions of planktonic P. aeruginosa and S. epidermidis cultures were determined to evaluate compound efficacy in different growth conditions. The MICs for A. baumannii were determined only in aerobic conditions. To examine growth in aerobic conditions, bacteria were grown in either Mueller Hinton (MH) media only, MH media in the presence of 1% KNO3, or MH in the presence of 1% glucose. For MIC determinations under anaerobic conditions, growth was examined in MH media with 1% KNO3 or with 1% glucose.

S. epidermidis = assay: as above; assay type: cell-based; conditions: Staphylococcus epidermidis
Protocol: as §1, §2

P. aeruginosa biofilm = assay: CLSM, co-culture of bacteria with compound (inhibition of biofilm formation); assay type: cell-based, Pseudomonas aeruginosa; conditions: for killing of residential bacteria, co-culture (CLSM, in words): 10 μM; for Co-culture of bacteria with compound: Killing: Y / —
Protocol: Broad spectrum agents (effective against all three bacterial species) and single agent compounds identified as HTS hits were investigated with CLSM confirmation of inhibition of biofilm formation (culture of bacteria with compounds) or killing of bacteria residing within an established biofilm (compound addition after culturing biofilm). To evaluate inhibition of P. aeruginosa biofilms, bacteria were sub-cultured into 10% L-broth and grown at 37° C. until the OD600 reached 0.25. The bacteria were further diluted 1:100 into a modified 0.5×M63 minimum media (50 mM KH2PO4, 7.5 mM (NH4)2SO4, 9 μM FeSO4, 0.5% casamino acids, 0.2% glucose, and 1 mM MgSO4). A. baumannii biofilms were also grown in 10% L-broth until the OD600 reached 0.05 but diluted 1:10 into 5% L-broth media. S. epidermidis biofilm cultures were grown. Briefly, the bacteria were grown in TSB until the OD600 reached 0.75, and a 1:100 dilution of the bacteria was sub-cultured into phosphate buffered saline (PBS). All of the biofilm bacterial cultures were grown in 96-well plate chambers (MatTek Corp., Ashland, Mass.) in the presence of 10 μM of each compound or DMSO as a control and incubated for 18 hrs at 37° C. To investigate the ability of compounds to kill bacteria within pre-existing biofilms, biofilms were grown under the same conditions, but without test compound. These biofilms were washed once with PBS and incubated an additional 24 hr at 37° C. in PBS containing 300 μM of each compound. All biofilm cultures were then washed twice with 100 μL of PBS and stained using the LIVE/DEAD® BacLight™ Bacterial Viability Kit (Invitrogen). Finally, biofilm images were obtained using a Zeiss LSM510 META Confocal Microscope (Carl Zeiss, Inc., Germany). A 488 nm laser was used in conjunction with a Plan-Apochromat 100×/1.4 Oil DIC objective. Z-stacks were 8 bit and measured 127.3 μm×127.3 μm×16.0 μm in size. The filters used were 505-530 and 620-680 IR, as the excitation and emission wavelengths for red fluorescence are 490 nm and 635 nm, respectively, and 480 nm and 500 nm for green fluorescence. Three dimensional images were generated using the “Projection” ability on LSM Image Browser software (v.1.4.0.121) or Zeiss LSM image browser software version 3.5 (Carl Zeiss, Inc., Germany), and Live/Dead calculations were conducted based upon these images using MacBiophotonics ImageJ following the guidelines in the cell counting guide by C. Labno {Rasband, 1997-2011 #25; Labno, #2} at the University of Chicago Integrated Light Microscopy Core. The thickness of the biofilm was calculated using Comstat software. A hit was defined as a >50% dead to live ratio.
The CLSM experiment was performed in one or two or all bacteria used in this study depending on its activity. For the validation of HTS hits, 10 μM of compound was added to each bacterial suspension and the resulting biofilm stained with LIVE/DEAD® BacLight™ Bacterial Viability Kit. The images were analyzed to determine the live and dead ratios of biofilm bacteria, the thickness of biofilms, and structural attributes of biofilms.

S. epidermidis biofilm = assay: HTS live biofilm assay (resazurin metabolic activity); assay type: cell-based; conditions: Staphylococcus epidermidis, dose-response
[1] = MH with 1% KNO3, Aerobic, read-out: Minimum Inhibition Concentration
[2] = MH with 1% KNO3, Anaerobic, read-out: Minimum Inhibition Concentration
[3] = MH, Aerobic, read-out: Minimum Inhibition Concentration
[4] = across all growth conditions (aerobic and anaerobic), read-out: concentration required to inhibit planktonic P. aeruginosa growth (MIC)
[5] = MH with 1% Glucose, Aerobic, read-out: Minimum Inhibition Concentration
[6] = MH with 1% Glucose, Anaerobic, read-out: Minimum Inhibition Concentration
[7] = across all media and conditions (aerobic and anaerobic), read-out: concentration required to inhibit planktonic S. epidermidis growth (MIC)

Cn1sc(Cl)c(C#N)c1=O [Compound 3, 5-chloro-2-methyl-3-oxo-1,2-thiazole-4-carbonitrile]
MIC (P. aeruginosa; [1]): 33.3 ± 8.33 µM (≈ 5.82 µg/mL) | MIC (P. aeruginosa; [2]): 25 µM (≈ 4.37 µg/mL) | MIC (P. aeruginosa; [3]): > 50 µM | MIC (P. aeruginosa; [4]): ≥ 25 µM | MIC (S. epidermidis; [5]): 10.4 ± 2.08 µM (≈ 1.82 µg/mL) | MIC (S. epidermidis; [6]): 16.7 ± 4.17 µM (≈ 2.91 µg/mL) | MIC (S. epidermidis; [1]): 25 µM (≈ 4.37 µg/mL) | MIC (S. epidermidis; [2]): 16.7 ± 4.17 µM (≈ 2.91 µg/mL) | MIC (S. epidermidis; [3]): 20.8 ± 4.17 µM (≈ 3.64 µg/mL) | MIC (S. epidermidis; [7]): 10 to 25 µM (≈ 1.75 to 4.37 µg/mL) | killing of residential bacteria, co-culture (CLSM, in words) (P. aeruginosa biofilm): killed residential bacteria | Co-culture of bacteria with compound: Killing (P. aeruginosa biofilm; CLSM, 10 μM compound, 18 hrs): Y (A hit was defined as a >50% dead to live ratio) | AC50 (S. epidermidis biofilm): 8610 nM

NC(=S)N1CCN(c2cc3c(cc2F)c(=O)c(C(=O)O)cn3C2CC2)CC1 [Compound 7, 7-(4-carbamothioylpiperazin-1-yl)-1-cyclopropyl-6-fluoro-4-oxoquinoline-3-carboxylic acid]
MIC (P. aeruginosa; [1]): 5.21 ± 1.04 µM (≈ 2.03 µg/mL) | MIC (P. aeruginosa; [2]): 4.17 ± 1.04 µM (≈ 1.63 µg/mL) | MIC (P. aeruginosa; [3]): 4.7 ± 1.04 µM (≈ 1.84 µg/mL) | MIC (P. aeruginosa; [4]): 4 to 5 µM (≈ 1.56 to 1.95 µg/mL) | MIC (S. epidermidis; [5]): 5.86 ± 2.42 µM (≈ 2.29 µg/mL) | MIC (S. epidermidis; [6]): 5.21 ± 1.04 µM (≈ 2.03 µg/mL) | MIC (S. epidermidis; [1]): 10.4 ± 2.08 µM (≈ 4.07 µg/mL) | MIC (S. epidermidis; [2]): 5.21 ± 1.04 µM (≈ 2.03 µg/mL) | MIC (S. epidermidis; [3]): 8.33 ± 2.08 µM (≈ 3.25 µg/mL) | MIC (S. epidermidis; [7]): 4 to 10 µM (≈ 1.56 to 3.9 µg/mL) | killing of residential bacteria, co-culture (CLSM, in words) (P. aeruginosa biofilm): killed residential bacteria | Co-culture of bacteria with compound: Killing (P. aeruginosa biofilm; CLSM, 10 μM compound, 18 hrs): Y (A hit was defined as a >50% dead to live ratio) | AC50 (S. epidermidis biofilm): 850 nM

O=C(O)c1cn(C2CC2)c2c(F)c(N3CC(O)C3)c(F)cc2c1=O [Compound 8, 1-cyclopropyl-6,8-difluoro-7-(3-hydroxyazetidin-1-yl)-4-oxoquinoline-3-carboxylic acid]
Minimum Inhibition Concentration (P. aeruginosa; MH with 1% KNO3, Anaerobic): 7.81 ± 2.71 µM | MIC (P. aeruginosa; [1]): ≤ 20 µM | MIC (P. aeruginosa; [2]): 7 µM (≈ 2.35 µg/mL) | MIC (P. aeruginosa; [3]): 10.4 ± 2.08 µM (≈ 3.5 µg/mL) | MIC (S. epidermidis; [5]): 0.65 ± 0.13 µM (≈ 0.219 µg/mL) | MIC (S. epidermidis; [6]): 0.78 ± 0.39 µM (≈ 0.262 µg/mL) | MIC (S. epidermidis; [1]): 0.78 ± 0.39 µM (≈ 0.262 µg/mL) | MIC (S. epidermidis; [2]): 0.39 µM (≈ 0.131 µg/mL) | MIC (S. epidermidis; [3]): 0.65 ± 10.1 µM (≈ 0.219 µg/mL) | MIC (S. epidermidis; [7]): < 1 µM | AC50 (S. epidermidis biofilm): < 100 nM

O=C(O)c1cn(C2CC2)c2c(F)c(-c3ccncc3)c(F)cc2c1=O [Compound 11, 7-(4-pyridyl)-1-cyclopropyl-6,8-difluoro-4-oxoquinoline-3-carboxylic acid]
MIC (P. aeruginosa; [1]): > 50 µM | MIC (P. aeruginosa; [2]): 25 ± 12.5 µM (≈ 8.56 µg/mL) | MIC (P. aeruginosa; [3]): > 50 µM | MIC (P. aeruginosa; [4]): ≥ 25 µM | MIC (S. epidermidis; [5]): 7.81 ± 2.71 µM (≈ 2.67 µg/mL) | MIC (S. epidermidis; [6]): 7.29 ± 2.76 µM (≈ 2.5 µg/mL) | MIC (S. epidermidis; [1]): 7.81 ± 2.71 µM (≈ 2.67 µg/mL) | MIC (S. epidermidis; [2]): 4.17 ± 1.04 µM (≈ 1.43 µg/mL) | MIC (S. epidermidis; [3]): 5.73 ± 3.42 µM (≈ 1.96 µg/mL) | MIC (S. epidermidis; [7]): 4 to 10 µM (≈ 1.37 to 3.42 µg/mL) | Co-culture of bacteria with compound: Inhibit biofilm formation (P. aeruginosa biofilm; CLSM, 10 μM compound, 18 hrs): no effect | AC50 (S. epidermidis biofilm): < 100 nM
